PubChem BioAssay AID1963972 (Molecular Pharmacology Branch, DTP, NCI, 2024)

Tested on: 945468-187-T-J2-PDC spheroids viability
Assay: Anticancer human tumor 945468-187-T-J2-PDC patient-derived rectal carcinoma cell line growth inhibition [PI3K]
Conditions: spheroids with HUVEC and MSC; for IC50: curve of first compound; for viability, T/C: stronger effect = lower value
In short: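 Combination activity was assessed by viability in multicellular tumor spheroids carrying HUVEC and MSC components. Agents were tested with PI3K inhibitors from a Cmax-based top dose (or 10 microM) downward in half-log increments.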

[1] = second compound 0.00316 µM, first compound 0.0316 µM
[2] = second compound 0.00316 µM, first compound 0.1 µM
[3] = second compound 0.01 µM, first compound 0.0316 µM
[4] = second compound 0.01 µM, first compound 0.1 µM
[5] = second compound 0.0316 µM, first compound 0.0316 µM
[6] = second compound 0.0316 µM, first compound 0.1 µM
[7] = second compound 0.1 µM, first compound 0.0316 µM
[8] = second compound 0.1 µM, first compound 0.1 µM
[9] = second compound 0.316 µM, first compound 0.0316 µM
[10] = second compound 0.316 µM, first compound 0.1 µM
[11] = second compound 1 µM, first compound 0.0316 µM
[12] = second compound 1 µM, first compound 0.1 µM
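Note: spheroids exposed to compounds for seven days before reading.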

**Q.** Which results are given for `CC1(C)CCC(CN2CCN(c3ccc(C(=O)NS(=O)(=O)c4ccc(NCC5CCOCC5)c([N+](=O)[O-])c4)c(Oc4cnc5[nH]ccc5c4)c3)CC2)=C(c2ccc(Cl)cc2)C1` + COc1c(OCCCN2CCOCC2)ccc2c3n(c(=NC(=O)c4cnc(N)nc4)nc12)CCN3?
**A.** IC50 (second compound 0.00316 µM): > 10000 nM; IC50 (second compound 0.01 µM): > 10000 nM; IC50 (second compound 0.0316 µM): > 10000 nM; IC50 (second compound 0.1 µM): > 10000 nM; IC50 (second compound 0.316 µM): < 31.6 nM; IC50 (second compound 1 µM): < 31.6 nM; viability, T/C [1]: 87.8%; viability, T/C [2]: 87.4%; viability, T/C (second compound 0.00316 µM, first compound 0.316 µM): 94.8%; viability, T/C (second compound 0.00316 µM, first compound 1 µM): 110%; viability, T/C (second compound 0.00316 µM, first compound 3.16 µM): 116%; viability, T/C (second compound 0.00316 µM, first compound 10 µM): 74.1%; viability, T/C [3]: 96.8%; viability, T/C [4]: 100%; viability, T/C (second compound 0.01 µM, first compound 0.316 µM): 90.5%; viability, T/C (second compound 0.01 µM, first compound 1 µM): 89.6%; viability, T/C (second compound 0.01 µM, first compound 3.16 µM): 95.7%; viability, T/C (second compound 0.01 µM, first compound 10 µM): 90.3%; viability, T/C [5]: 99.9%; viability, T/C [6]: 103%; viability, T/C (second compound 0.0316 µM, first compound 0.316 µM): 82.9%; viability, T/C (second compound 0.0316 µM, first compound 1 µM): 115%; viability, T/C (second compound 0.0316 µM, first compound 3.16 µM): 97%; viability, T/C (second compound 0.0316 µM, first compound 10 µM): 105%; viability, T/C [7]: 87.7%; viability, T/C [8]: 75%; viability, T/C (second compound 0.1 µM, first compound 0.316 µM): 100%; viability, T/C (second compound 0.1 µM, first compound 1 µM): 90.5%; viability, T/C (second compound 0.1 µM, first compound 3.16 µM): 84.5%; viability, T/C (second compound 0.1 µM, first compound 10 µM): 81.6%; viability, T/C [9]: 31.3%; viability, T/C [10]: 36.7%; viability, T/C (second compound 0.316 µM, first compound 0.316 µM): 47.7%; viability, T/C (second compound 0.316 µM, first compound 1 µM): 38.6%; viability, T/C (second compound 0.316 µM, first compound 3.16 µM): 33%; viability, T/C (second compound 0.316 µM, first compound 10 µM): 36.7%; viability, T/C [11]: 19.9%; viability, T/C [12]: 21.4%; viability, T/C (second compound 1 µM, first compound 0.316 µM): 19.4%; viability, T/C (second compound 1 µM, first compound 1 µM): 19.9%; viability, T/C (second compound 1 µM, first compound 3.16 µM): 22.4%; viability, T/C (second compound 1 µM, first compound 10 µM): 22.6%

**Q.** With `Cn1ncnc1[C@H]1c2n[nH]c(=O)c3cc(F)cc(c23)N[C@@H]1c1ccc(F)cc1` + CC(Nc1ccc2c(c1)OCCn1cc(N3C(=O)OCC3C(F)F)nc1-2)C(N)=O as the compound, how does the IC50 (second compound 0.00316 µM) read?
**A.** The IC50 was greater than 100 nM.

**Q.** And the IC50 (second compound 0.01 µM)?
**A.** The IC50 was greater than 100 nM.

**Q.** What about the IC50 (second compound 0.0316 µM) of the same compound?
**A.** The IC50 was greater than 100 nM.

**Q.** What about the IC50 (second compound 0.1 µM) of the same compound?
**A.** The IC50 was greater than 100 nM.

**Q.** And the IC50 (second compound 0.316 µM)?
**A.** Its IC50 is greater than 100 nM.

**Q.** And the IC50 (second compound 1 µM)?
**A.** The IC50 was greater than 100 nM.

**Q.** What about the viability, T/C (second compound 0.00316 µM, first compound 0.000316 µM) of the same compound?
**A.** The viability, T/C was 103%.

**Q.** And the viability, T/C (second compound 0.00316 µM, first compound 0.001 µM)?
**A.** The viability, T/C was 114%.

**Q.** And the viability, T/C (second compound 0.00316 µM, first compound 0.00316 µM)?
**A.** The viability, T/C was 105%.

**Q.** And the viability, T/C (second compound 0.00316 µM, first compound 0.01 µM)?
**A.** Its viability, T/C is 86.6%.

**Q.** What about the viability, T/C [1] of the same compound?
**A.** The viability, T/C was 92.6%.

**Q.** What about the viability, T/C [2] of the same compound?
**A.** The viability, T/C was 99.7%.

**Q.** What about the viability, T/C (second compound 0.01 µM, first compound 0.000316 µM) of the same compound?
**A.** The viability, T/C was 131%.

**Q.** And the viability, T/C (second compound 0.01 µM, first compound 0.001 µM)?
**A.** Its viability, T/C is 99.1%.

**Q.** And the viability, T/C (second compound 0.01 µM, first compound 0.00316 µM)?
**A.** The viability, T/C was 107%.

**Q.** And the viability, T/C (second compound 0.01 µM, first compound 0.01 µM)?
**A.** Its viability, T/C is 84.5%.

**Q.** What about the viability, T/C [3] of the same compound?
**A.** The viability, T/C was 110%.

**Q.** What about the viability, T/C [4] of the same compound?
**A.** Its viability, T/C is 123%.

**Q.** And the viability, T/C (second compound 0.0316 µM, first compound 0.000316 µM)?
**A.** Its viability, T/C is 129%.

**Q.** And the viability, T/C (second compound 0.0316 µM, first compound 0.001 µM)?
**A.** The viability, T/C was 139%.

**Q.** And the viability, T/C (second compound 0.0316 µM, first compound 0.00316 µM)?
**A.** The viability, T/C was 100%.

**Q.** And the viability, T/C (second compound 0.0316 µM, first compound 0.01 µM)?
**A.** The viability, T/C was 98.8%.

**Q.** And the viability, T/C [5]?
**A.** Its viability, T/C is 96.3%.

**Q.** And the viability, T/C [6]?
**A.** Its viability, T/C is 123%.

**Q.** And the viability, T/C (second compound 0.1 µM, first compound 0.000316 µM)?
**A.** Its viability, T/C is 87.6%.

**Q.** And the viability, T/C (second compound 0.1 µM, first compound 0.001 µM)?
**A.** The viability, T/C was 112%.

**Q.** And the viability, T/C (second compound 0.1 µM, first compound 0.00316 µM)?
**A.** The viability, T/C was 96.8%.

**Q.** What about the viability, T/C (second compound 0.1 µM, first compound 0.01 µM) of the same compound?
**A.** Its viability, T/C is 89.1%.

**Q.** And the viability, T/C [7]?
**A.** The viability, T/C was 118%.

**Q.** And the viability, T/C [8]?
**A.** Its viability, T/C is 102%.

**Q.** What about the viability, T/C (second compound 0.316 µM, first compound 0.000316 µM) of the same compound?
**A.** The viability, T/C was 82.3%.

**Q.** And the viability, T/C (second compound 0.316 µM, first compound 0.001 µM)?
**A.** The viability, T/C was 103%.

**Q.** What about the viability, T/C (second compound 0.316 µM, first compound 0.00316 µM) of the same compound?
**A.** The viability, T/C was 100%.

**Q.** What about the viability, T/C (second compound 0.316 µM, first compound 0.01 µM) of the same compound?
**A.** The viability, T/C was 88%.

**Q.** And the viability, T/C [9]?
**A.** The viability, T/C was 99.7%.

**Q.** What about the viability, T/C [10] of the same compound?
**A.** The viability, T/C was 99.6%.

**Q.** What about the viability, T/C (second compound 1 µM, first compound 0.000316 µM) of the same compound?
**A.** Its viability, T/C is 77.1%.

**Q.** What about the viability, T/C (second compound 1 µM, first compound 0.001 µM) of the same compound?
**A.** Its viability, T/C is 84.3%.

**Q.** And the viability, T/C (second compound 1 µM, first compound 0.00316 µM)?
**A.** Its viability, T/C is 75.9%.

**Q.** And the viability, T/C (second compound 1 µM, first compound 0.01 µM)?
**A.** The viability, T/C was 84.9%.

**Q.** What about the viability, T/C [11] of the same compound?
**A.** The viability, T/C was 79.2%.

**Q.** And the viability, T/C [12]?
**A.** The viability, T/C was 77.2%.
